Experimental findings from patent US6677329B1, “Non-aromatic estrogenic steroids with a hydrocarbon substituent in position 11” (Akzo Nobel N V., priority 1999, dated 2004) are described below.

The target in assay [1] is T1, human estrogen receptor α (hERα) (Homo sapiens, UniProt P03372).
T1 construct: expressed in transfected cells; host or cells: CHO cells, line CHO-ERRO 2B1-1E9, with rat oxytocin promoter and luciferase reporter
T1 sequence (P03372 1-595): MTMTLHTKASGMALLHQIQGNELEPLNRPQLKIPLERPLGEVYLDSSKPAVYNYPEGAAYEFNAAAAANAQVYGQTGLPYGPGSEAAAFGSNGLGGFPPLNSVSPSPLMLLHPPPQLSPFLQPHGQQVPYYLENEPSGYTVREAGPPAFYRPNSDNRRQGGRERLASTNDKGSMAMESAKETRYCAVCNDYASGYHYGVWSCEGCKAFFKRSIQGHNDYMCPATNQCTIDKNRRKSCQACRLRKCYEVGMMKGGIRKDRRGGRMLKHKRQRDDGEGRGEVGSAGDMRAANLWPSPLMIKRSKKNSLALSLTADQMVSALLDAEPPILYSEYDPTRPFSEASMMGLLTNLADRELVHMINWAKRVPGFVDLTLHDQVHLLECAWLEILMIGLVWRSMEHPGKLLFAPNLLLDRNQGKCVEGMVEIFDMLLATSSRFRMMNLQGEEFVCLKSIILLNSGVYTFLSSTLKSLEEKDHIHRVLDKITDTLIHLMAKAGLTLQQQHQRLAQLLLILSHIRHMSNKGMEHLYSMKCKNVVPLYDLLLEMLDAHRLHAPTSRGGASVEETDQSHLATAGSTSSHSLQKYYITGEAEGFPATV
Nature of the assay: transactivation assay in recombinant CHO cells (rat oxytocin promoter, luciferase reporter), α. As to conditions: potency ratio, in percentage of the action of the reference compound in the assay. The format is cell-based. Here is the method:
(§1) Compounds are tested for their estrogen receptor activity in a binding assay and in a transactivation assay.
(§2) The antiestrogenic activity of compounds is determined in an in vitro bioassay with recombinant Chinese hamster ovary (CHO) cells stably co-transfected with the human estrogen receptor α (hERα) or β receptor (hERβ), the rat oxytocin promoter (RO) and the luciferase reporter gene (LUC). The antiestrogenic activity (potency ratio) of a test compound to inhibit the transactivation of the enzyme luciferase mediated via the estrogen receptor by the estrogen Org 2317 (estradiol, 1, 3, 5 (10)-estratriene-3,17β-diol) is compared with the standard Org 34790 (ICI 164.384; (7α,17β)-N-butyl-3,17-dihydroxy-N-methylestra-1,3,5 (10)-triene-7-undecanamide).
(§3) Test medium: Intact recombinant CHO cells stably co-transfected with the human estrogen receptor, the rat oxytocin promoter and the luciferase reporter gene. The cell line has been produced within the Department of Biotechnology and Biochemistry (BBC) (N.V. Organon) and is known under the name CHO-ERRO 2B1-1E9.
(§4) The data are expressed in percentage of the action of the reference compound in the assay

In assay [2] the target is T1, human estrogen receptor α (hERα). Description: competitive binding to cytoplasmic human estrogen receptor from recombinant CHO cells (α-binding). As to conditions: relative affinity (potency ratio), in percentage of the action of the reference compound in the assay; cytosol of recombinant CHO cells. As to the method:
(§5) Compounds are tested for their estrogen receptor activity in a binding assay and in a transactivation assay. Determination of competitive binding to cytoplasmic human estrogen receptor from rec.CHO cells is used to estimate the relative affinity (potency ratio) of a test compound for estrogen receptors present in the cytosol of recombinant Chinese hamster ovary (CHO) cells, stably transfected with the human estrogen receptor, as compared with estradiol (E2). Cytosol prepared from recombinant CHO cells, stably transfected with the human estrogen receptor. The cell line has been made within the Department of Biotechnology and Biochemistry (BBC) (N.V. Organon) and is known under the name CHO-ER (2B1). Reference compounds are ethinylestradiol and estriol. The data are expressed in percentage of the action of the reference compound in the assay

Assay [3] has as its target T2, human estrogen β receptor (hERβ) (Homo sapiens, UniProt Q92731).
T2 construct: expressed in transfected cells; host or cells: CHO cells with rat oxytocin promoter and luciferase reporter (no ERβ line named)
Nature of the assay: competitive binding to cytoplasmic human estrogen receptor from recombinant CHO cells (β-binding). As to conditions: relative affinity (potency ratio), in percentage of the action of the reference compound in the assay; cytosol of recombinant CHO cells. As to the method: as §5

For assay [4], the target named is T2, human estrogen β receptor (hERβ). Nature of the assay: transactivation assay in recombinant CHO cells (rat oxytocin promoter, luciferase reporter), β. It counts as cell-based. As to conditions: potency ratio, in percentage of the action of the reference compound in the assay. Here is the method:
as §1, §2, §3, §4

T2 sequence (Q92731 whole entry): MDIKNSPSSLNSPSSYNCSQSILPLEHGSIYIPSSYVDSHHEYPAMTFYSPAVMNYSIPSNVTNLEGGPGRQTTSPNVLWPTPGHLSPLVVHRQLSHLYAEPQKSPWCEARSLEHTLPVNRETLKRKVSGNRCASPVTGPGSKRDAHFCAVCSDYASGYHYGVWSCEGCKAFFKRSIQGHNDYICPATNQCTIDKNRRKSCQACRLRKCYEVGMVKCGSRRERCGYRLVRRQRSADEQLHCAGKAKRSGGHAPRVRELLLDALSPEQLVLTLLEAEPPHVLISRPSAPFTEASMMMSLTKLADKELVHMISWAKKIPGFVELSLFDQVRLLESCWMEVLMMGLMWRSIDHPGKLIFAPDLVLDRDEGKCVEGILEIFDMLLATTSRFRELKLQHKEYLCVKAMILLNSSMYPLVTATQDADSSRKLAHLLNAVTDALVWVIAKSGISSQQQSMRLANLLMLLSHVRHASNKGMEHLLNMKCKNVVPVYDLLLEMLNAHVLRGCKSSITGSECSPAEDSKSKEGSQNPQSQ

`C#C[C@]1(O)CCC2C3CC[C@H]4C[C@@H](O)CCC4C3[C@@H](CCF)C[C@@]21C` (stereo partly drawn) [Compound 31, (3β,5α,11β,17β)-11-(2-fluoroethyl)-19-norpregn-20-yne-3,17-diol]: the α-transactivation in assay [1] is 9.6 percentage. Further, the α-binding. in assay [2] stood at 37 percentage. Moreover, the β-binding in assay [3] is 0.1 percentage. Further, in assay [4], the β-transactivation came out at 0.2 percentage.

As to `C#C[C@]1(O)CCC2C3CCC4=C(CC[C@@H](O)C4)C3[C@@H](CCC=C)C[C@@]21C` (stereo partly drawn) [Compound 42, (3α,11β,17β)-11-(3-butenyl)-I9-norpregn-5(10)-en-20-yne-3,17-diol], the α-transactivation in assay [1] is listed as 2 percentage. Also, in assay [2], the α-binding. was 29 percentage. Moreover, the β-binding in assay [3] is given as 0.1 percentage. Also, the β-transactivation in assay [4] is given as under 0.04 percentage.

On to `C#C[C@]1(O)CCC2C3CCC4=C(CC[C@@H](O)C4)C3[C@@H](CC=C)C[C@@]21C` (stereo partly drawn) [Compound 11, (3α,11β,17β)-11-(2-propenyl)-19-norpregn-5(10)-en-20-yne-3,17-diol], for which, in assay [1], the α-transactivation was 58 percentage. Moreover, the α-binding. in assay [2] worked out at 57 percentage. Further, the β-binding in assay [3] stood at 1.1 percentage. The β-transactivation in assay [4] was 0.8 percentage.

On to `C#C[C@]1(O)CCC2C3C(C4=C(C[C@@H](O)CC4)C[C@H]3C)[C@@H](CCF)C[C@@]21C` (stereo partly drawn) [Compound 54, (3β,7α,11β,17β)-11-(2-fluoroethyl)-7-methyl-19-norpregn-5(10)-en-20-yne-3,17-diol], for which, in assay [1], the α-transactivation is 29.7 percentage. For the same compound, the α-binding. in assay [2] is listed as 27,5 percentage. For the same compound, the β-binding in assay [3] was found to be 0.1 percentage. For the same compound, in assay [4], the β-transactivation is reported as 1.0 percentage.

With `C#C[C@]1(O)[C@H](C)CC2C3C(C(=C)C[C@@]21C)C1CC[C@H](O)C[C@@H]1C[C@H]3C` (stereo partly shown) [Compound 81], the α-transactivation in assay [1] is on record as 27 percentage. Moreover, the β-transactivation in assay [4] turned out to be 0.1 percentage.

Consider `C#C[C@]1(O)CCC2C3C(C4=C(C[C@H](O)CC4)C[C@H]3C)[C@@H](CCF)C[C@@]21C` (stereo partly drawn) [Compound 55, (3α,7α,11β,17β)-11-(2-fluoroethyl)-7-methyl-19-norpregn-5(10)-en-20-yne-3,17-diol], for which, in assay [1], the α-transactivation stood at 61.5 percentage. For the same compound, the α-binding. in assay [2] is 36 percentage. In addition, the β-binding in assay [3] worked out at 0.1 percentage. Further, the β-transactivation in assay [4] is given as 1.9 percentage.

For `C#C[C@]1(O)CCC2C3CC[C@H]4C[C@@H](O)CCC4C3[C@@H](C(F)F)C[C@@]21C` (stereo partly drawn) [Compound 21, (3β,5α,11β,17β)-11-difluoromethyl-19-norpregn-20-yne-3,17-diol], the α-transactivation in assay [1] was determined as 7.7 percentage. The α-binding. in assay [2] worked out at 8.6 percentage. The β-binding in assay [3] worked out at 0.2 percentage. Also, the β-transactivation in assay [4] came out at 0.1 percentage.

With `C#C[C@]1(O)CCC2C3CCC4=C(CC[C@H](O)C4)C3[C@@H](CCC=C)C[C@@]21C` (stereo partly drawn) [Compound 43, (3β,11β,17β)-11-(3-butenyl)-19-norpregn-5(10)-en-20-yne-3,17-diol], the α-transactivation in assay [1] worked out at 1.3 percentage. Moreover, in assay [2], the α-binding. amounted to 11.9 percentage. Moreover, in assay [3], the β-binding amounted to 0.1 percentage. Further, the β-transactivation in assay [4] is listed as under 0.1 percentage.

Regarding `C#C[C@]1(O)CCC2C3CC[C@H]4C[C@H](O)CCC4C3[C@@H](CCF)C[C@@]21C` (stereo partly drawn) [Compound 32, (3α,5α,11β,17β)-11-(2-fluoroethyl)-19-norpregn-20-yne-3,17-diol], the α-transactivation in assay [1] was found to be 2.4 percentage. In addition, the α-binding. in assay [2] is 2,6 percentage. Also, the β-binding in assay [3] is on record as under 0.1 percentage. The β-transactivation in assay [4] came to 0.1 percentage.
